In article PMC5218480 (PLoS ONE, 2017):

Tested on: MV-4-11 cells
Assay: Gene expression microarray analysis (Affymetrix PrimeView) and GSEA
Assay type: cell-based, human
Design: RFU PODN (11730768_x_at) / Fold change /veh PODN (11730768_x_at) / RFU LINC00158 (11744669_a_at) / Fold change /veh LINC00158 (11744669_a_at) / RFU DUSP10 (11751237_a_at) / Fold change /veh DUSP10 (11751237_a_at) / RFU ID3 (11757404_x_at) / Fold change /veh ID3 (11757404_x_at) / RFU PLEKHG5 (11737974_s_at) / Fold change /veh PLEKHG5 (11737974_s_at) / RFU LRRC4B (11730491_at) / Fold change /veh LRRC4B (11730491_at) / RFU GIMAP4 (11747438_a_at) / Fold change /veh GIMAP4 (11747438_a_at) / RFU KRT8 (11758183_x_at) / Fold change /veh KRT8 (11758183_x_at) / RFU CNN1 (11734310_a_at) / Fold change /veh CNN1 (11734310_a_at) / RFU VPS37D (11726825_at) / Fold change /veh VPS37D (11726825_at) / RFU C10orf10 (11716522_x_at) / Fold change /veh C10orf10 (11716522_x_at) / RFU KIR2DL2 /// KIR2DL4 /// KIR2DL5A /// KIR2DL5B /// KIR2DS1 /// KIR2DS2 /// KIR2DS3 /// KIR2DS4 /// KIR3DL3 /// KIR3DL3 /// KIR3DS1 (11738374_at) / Fold change /veh KIR2DL2 /// KIR2DL4 /// KIR2DL5A /// KIR2DL5B /// KIR2DS1 /// KIR2DS2 /// KIR2DS3 /// KIR2DS4 /// KIR3DL3 /// KIR3DL3 /// KIR3DS1 (11738374_at) / RFU C1QL1 (11718748_at) / Fold change /veh C1QL1 (11718748_at) / RFU TMPRSS4 (11747572_a_at) / Fold change /veh TMPRSS4 (11747572_a_at) / RFU HAMP (11756126_x_at) / Fold change /veh HAMP (11756126_x_at) / RFU RNFT2 (11725882_a_at) / Fold change /veh RNFT2 (11725882_a_at) / RFU NR4A2 (11747474_a_at) / Fold change /veh NR4A2 (11747474_a_at) / RFU ABCC12 (11746883_a_at) / Fold change /veh ABCC12 (11746883_a_at) / RFU TMEM136 (11760407_x_at) / Fold change /veh TMEM136 (11760407_x_at) / RFU CLDN22 /// WWC2 (11732394_at) / Fold change /veh CLDN22 /// WWC2 (11732394_at) / RFU HLA-DPB1 (11760878_x_at) / Fold change /veh HLA-DPB1 (11760878_x_at) / RFU SPINT1 (11716480_a_at) / Fold change /veh SPINT1 (11716480_a_at) / RFU GAP43 (11754022_s_at) / Fold change /veh GAP43 (11754022_s_at) / RFU A4GNT (11735810_at) / Fold change /veh A4GNT (11735810_at) / RFU PRB3 (11715151_x_at) / Fold change /veh PRB3 (11715151_x_at) / RFU TUBB4B (11761932_at) / Fold change /veh TUBB4B (11761932_at) / RFU CAPN14 (11732068_a_at) / Fold change /veh CAPN14 (11732068_a_at) / RFU TMCC2 (11721928_a_at) / Fold change /veh TMCC2 (11721928_a_at) / RFU IRGQ (11745062_a_at) / Fold change /veh IRGQ (11745062_a_at) / RFU FAM174B (11720279_a_at) / Fold change /veh FAM174B (11720279_a_at) / RFU TMPRSS4 (11748680_a_at) / Fold change /veh TMPRSS4 (11748680_a_at) / RFU FAM212B (11763350_a_at) / Fold change /veh FAM212B (11763350_a_at) / RFU PLEKHG5 (11743358_a_at) / Fold change /veh PLEKHG5 (11743358_a_at) / RFU ZSCAN30 (11745921_a_at) / Fold change /veh ZSCAN30 (11745921_a_at) / RFU CMKLR1 (11741424_a_at) / Fold change /veh CMKLR1 (11741424_a_at) / RFU LOC101060620 /// MAPK8IP1 (11723275_at) / Fold change /veh LOC101060620 /// MAPK8IP1 (11723275_at) / RFU SPTSSB (11747773_x_at) / Fold change /veh SPTSSB (11747773_x_at) / RFU PRSS12 (11739890_at) / Fold change /veh PRSS12 (11739890_at) / RFU BIN1 (11741810_x_at) / Fold change /veh BIN1 (11741810_x_at) / RFU WNT11 (11732464_a_at) / Fold change /veh WNT11 (11732464_a_at) / RFU C10orf10 (11716521_a_at) / Fold change /veh C10orf10 (11716521_a_at) / RFU C5orf56 (11738089_at) / Fold change /veh C5orf56 (11738089_at) / RFU CYB561 (11721691_x_at) / Fold change /veh CYB561 (11721691_x_at) / RFU ANKRD19P (11752326_a_at) / Fold change /veh ANKRD19P (11752326_a_at) / RFU OR2T12 /// OR2T33 /// OR2T8 (11738714_s_at) / Fold change /veh OR2T12 /// OR2T33 /// OR2T8 (11738714_s_at) / RFU VCAN (11748164_a_at) / Fold change /veh VCAN (11748164_a_at) / RFU JSRP1 (11732532_at) / Fold change /veh JSRP1 (11732532_at) / RFU KRTAP10-11 (11738290_x_at) / Fold change /veh KRTAP10-11 (11738290_x_at) / RFU MYO3A (11730013_a_at) / Fold change /veh MYO3A (11730013_a_at) / RFU EBF3 (11725865_a_at) / Fold change /veh EBF3 (11725865_a_at) / RFU CAMK2N1 (11719241_x_at) / Fold change /veh CAMK2N1 (11719241_x_at) / RFU C5orf56 (11738088_a_at) / Fold change /veh C5orf56 (11738088_a_at) / RFU OLFML3 (11715873_a_at) / Fold change /veh OLFML3 (11715873_a_at) / RFU LOC100653217 /// NTM (11731650_a_at) / Fold change /veh LOC100653217 /// NTM (11731650_a_at) / RFU MAPK11 (11762145_a_at) / Fold change /veh MAPK11 (11762145_a_at) / RFU FIZ1 (11724087_x_at) / Fold change /veh FIZ1 (11724087_x_at) / RFU OASL (11726364_x_at) / Fold change /veh OASL (11726364_x_at) / RFU SOX15 (11748057_x_at) / Fold change /veh SOX15 (11748057_x_at) / RFU CD79A (11719716_a_at) / Fold change /veh CD79A (11719716_a_at) / RFU HIST1H1D (11736915_at) / Fold change /veh HIST1H1D (11736915_at) / RFU CASKIN2 (11723855_a_at) / Fold change /veh CASKIN2 (11723855_a_at) / RFU LOC730098 (11760151_x_at) / Fold change /veh LOC730098 (11760151_x_at) / RFU OR4N2 (11742367_at) / Fold change /veh OR4N2 (11742367_at) / RFU PRRT2 (11749266_a_at) / Fold change /veh PRRT2 (11749266_a_at) / RFU SNX32 (11753110_a_at) / Fold change /veh SNX32 (11753110_a_at) / RFU CDHR5 (11726645_a_at) / Fold change /veh CDHR5 (11726645_a_at) / RFU RCAN1 (11760418_a_at) / Fold change /veh RCAN1 (11760418_a_at) / RFU FAM167A (11723789_a_at) / Fold change /veh FAM167A (11723789_a_at) / RFU FAM26E (11764081_at) / Fold change /veh FAM26E (11764081_at) / RFU ISYNA1 (11749810_s_at) / Fold change /veh ISYNA1 (11749810_s_at) / RFU ACY1 (11761880_at) / Fold change /veh ACY1 (11761880_at) / RFU 11764098_at / Fold change /veh 11764098_at / RFU SAMD14 (11745864_x_at) / Fold change /veh SAMD14 (11745864_x_at) / RFU NPB (11741838_a_at) / Fold change /veh NPB (11741838_a_at) / RFU TMPRSS6 (11731388_a_at) / Fold change /veh TMPRSS6 (11731388_a_at) / RFU KRTAP10-2 (11738614_at) / Fold change /veh KRTAP10-2 (11738614_at) / RFU ARHGAP8 /// PRR5-ARHGAP8 (11727945_x_at) / Fold change /veh ARHGAP8 /// PRR5-ARHGAP8 (11727945_x_at) / RFU KRTAP5-7 /// NADSYN1 (11734609_at) / Fold change /veh KRTAP5-7 /// NADSYN1 (11734609_at) / RFU RASL12 (11751679_a_at) / Fold change /veh RASL12 (11751679_a_at) / RFU CDKN2B (11736163_a_at) / Fold change /veh CDKN2B (11736163_a_at) / RFU PRF1 (11729649_at) / Fold change /veh PRF1 (11729649_at) / RFU, ZNF638 /// ZNF638-IT1 / Fold change vs veh, ZNF638 /// ZNF638-IT1 / RFU, PANK3 / Fold change vs veh, PANK3 / RFU, SH3YL1 / Fold change vs veh, SH3YL1 / RFU, ZEB2 / Fold change vs veh, ZEB2 / RFU, NRIP1 / Fold change vs veh, NRIP1 / RFU, PTTG1IP / Fold change vs veh, PTTG1IP / RFU, CAPN2 / Fold change vs veh, CAPN2 / RFU, MED14 / Fold change vs veh, MED14 / RFU, SNORA58 / Fold change vs veh, SNORA58 / RFU, C1orf63 / Fold change vs veh, C1orf63 / RFU, LRRFIP1 / Fold change vs veh, LRRFIP1 / RFU, NDUFAF7 / Fold change vs veh, NDUFAF7 / RFU, SLC12A2 / Fold change vs veh, SLC12A2 / RFU, IBTK / Fold change vs veh, IBTK / RFU, ESF1 / Fold change vs veh, ESF1 / Fold change vs veh, TMEM50B / RFU, TAOK1 / Fold change vs veh, TAOK1 / RFU, ACBD3 / Fold change vs veh, ACBD3 / RFU, TMA16 / Fold change vs veh, TMA16 / RFU, RWDD3 / Fold change vs veh, RWDD3 / RFU, BCAT1 / Fold change vs veh, BCAT1 / RFU, EDEM3 / Fold change vs veh, EDEM3 / RFU, TMEM33 / Fold change vs veh, TMEM33 / RFU, WDR75 / Fold change vs veh, WDR75 / RFU, AHCTF1 / Fold change vs veh, AHCTF1 / RFU, TFRC / Fold change vs veh, TFRC / RFU, ZDHHC17 / Fold change vs veh, ZDHHC17 / RFU, NOM1 / Fold change vs veh, NOM1 / RFU, ARL8B / Fold change vs veh, ARL8B / RFU, ZBTB11 / Fold change vs veh, ZBTB11 / RFU, TAMM41 / Fold change vs veh, TAMM41 / RFU, KIAA1704 /// LOC100996395 / Fold change vs veh, KIAA1704 /// LOC100996395 / RFU, ING1 / Fold change vs veh, ING1 / RFU, TRMT61B / Fold change vs veh, TRMT61B / RFU, FUBP3 / Fold change vs veh, FUBP3 / RFU, TP53 / Fold change vs veh, TP53 / RFU, TNKS2 / Fold change vs veh, TNKS2 / RFU, ZFP14 / Fold change vs veh, ZFP14 / RFU, ACTR2 / Fold change vs veh, ACTR2 / RFU, PPP3R1 / Fold change vs veh, PPP3R1 / RFU, PIK3R1 / Fold change vs veh, PIK3R1 / RFU, HNRNPA1 / Fold change vs veh, HNRNPA1 / RFU, RNF170 / Fold change vs veh, RNF170 / RFU, ZNF28 / Fold change vs veh, ZNF28 / RFU, RNGTT / Fold change vs veh, RNGTT / RFU, OGT / Fold change vs veh, OGT / RFU, BRD1 / Fold change vs veh, BRD1 / RFU, MARS / Fold change vs veh, MARS / RFU, ZNF655 / Fold change vs veh, ZNF655 / RFU, FAHD1 / Fold change vs veh, FAHD1 / RFU, BDP1 / Fold change vs veh, BDP1 / RFU, LRRCC1 / Fold change vs veh, LRRCC1 / RFU, ARID1A / Fold change vs veh, ARID1A / RFU, ZNF146 / Fold change vs veh, ZNF146 / RFU, ZNF330 / Fold change vs veh, ZNF330 / RFU, GPN3 / Fold change vs veh, GPN3 / RFU, C9orf123 / Fold change vs veh, C9orf123 / RFU, N4BP2L2 / Fold change vs veh, N4BP2L2 / RFU, ARFIP1 / Fold change vs veh, ARFIP1 / RFU, FAM179B / Fold change vs veh, FAM179B / RFU, BCL10 / Fold change vs veh, BCL10 / RFU, UHRF1BP1L / Fold change vs veh, UHRF1BP1L / RFU, BET1 / Fold change vs veh, BET1 / RFU, CNOT2 / Fold change vs veh, CNOT2 / RFU, ZNF268 / Fold change vs veh, ZNF268 / Fold change vs veh, ZNF507 / RFU, DGCR2 / Fold change vs veh, DGCR2 / RFU, WDSUB1 / Fold change vs veh, WDSUB1 / Fold change vs veh, HSP90B1 /// MIR3652 / RFU, ADSS / Fold change vs veh, ADSS / RFU, GK / Fold change vs veh, GK / RFU, ZNF148 / Fold change vs veh, ZNF148 / RFU, TAF9 / Fold change vs veh, TAF9 / RFU, SLC1A5 / Fold change vs veh, SLC1A5 / RFU, SLMO2 / Fold change vs veh, SLMO2 / RFU, ABCC4 / Fold change vs veh, ABCC4 / RFU, LOC101060439 /// RAP1B / Fold change vs veh, LOC101060439 /// RAP1B / RFU, RFX7 / Fold change vs veh, RFX7 / RFU, GTPBP10 / Fold change vs veh, GTPBP10 / RFU, CNEP1R1 / Fold change vs veh, CNEP1R1 / RFU, BIVM-ERCC5 /// ERCC5 / Fold change vs veh, BIVM-ERCC5 /// ERCC5 / RFU, ILF3 / Fold change vs veh, ILF3 / RFU 11762660_at / Fold change /veh 11762660_at / RFU VCAN (11757783_s_at) / Fold change /veh VCAN (11757783_s_at) / RFU DDX43 (11728927_at) / Fold change /veh DDX43 (11728927_at) / RFU KRT8 (11758188_x_at) / Fold change /veh KRT8 (11758188_x_at) / RFU NKD1 (11759106_at) / Fold change /veh NKD1 (11759106_at) / RFU SRD5A1 (11742802_a_at) / Fold change /veh SRD5A1 (11742802_a_at) / RFU TPSAB1 /// TPSB2 (11721975_s_at) / Fold change /veh TPSAB1 /// TPSB2 (11721975_s_at) / RFU GSTM3 (11746129_a_at) / Fold change /veh GSTM3 (11746129_a_at) / RFU IL23R (11737362_x_at) / Fold change /veh IL23R (11737362_x_at) / RFU TMEM51 (11727254_a_at) / Fold change /veh TMEM51 (11727254_a_at) / RFU PIWIL2 (11732686_x_at) / Fold change /veh PIWIL2 (11732686_x_at) / RFU ORM1 (11744905_x_at) / Fold change /veh ORM1 (11744905_x_at) / RFU CCDC152 (11743942_at) / Fold change /veh CCDC152 (11743942_at) / RFU ECM1 (11717891_a_at) / Fold change /veh ECM1 (11717891_a_at) / RFU IL23R (11748794_a_at) / Fold change /veh IL23R (11748794_a_at) / RFU TNFAIP8L3 (11732012_x_at) / Fold change /veh TNFAIP8L3 (11732012_x_at) / RFU MBOAT4 (11741988_at) / Fold change /veh MBOAT4 (11741988_at) / RFU 11764193_at / Fold change /veh 11764193_at / RFU TMEM53 (11763286_at) / Fold change /veh TMEM53 (11763286_at) / RFU MAGEB2 (11727129_at) / Fold change /veh MAGEB2 (11727129_at) / RFU TMEM200A (11744735_a_at) / Fold change /veh TMEM200A (11744735_a_at) / RFU CCDC152 (11751479_a_at) / Fold change /veh CCDC152 (11751479_a_at) / RFU FAM211A (11726209_a_at) / Fold change /veh FAM211A (11726209_a_at) / RFU RGS16 (11746705_a_at) / Fold change /veh RGS16 (11746705_a_at) / RFU VCAN (11755009_s_at) / Fold change /veh VCAN (11755009_s_at) / RFU RHOB (11743442_s_at) / Fold change /veh RHOB (11743442_s_at) / RFU RGS16 (11720943_a_at) / Fold change /veh RGS16 (11720943_a_at) / RFU RGS16 (11720944_at) / Fold change /veh RGS16 (11720944_at) / RFU, VPS4B / Fold change vs veh, VPS4B / RFU, CREB1 / Fold change vs veh, CREB1 / RFU, DNAJC13 / Fold change vs veh, DNAJC13 / RFU, GNAQ / Fold change vs veh, GNAQ / RFU, CDK5R1 / Fold change vs veh, CDK5R1 / RFU, ZRANB3 / Fold change vs veh, ZRANB3 / RFU, CUL4A / Fold change vs veh, CUL4A / RFU, CCNY / Fold change vs veh, CCNY / RFU, UFL1 / Fold change vs veh, UFL1 / RFU, COG3 / Fold change vs veh, COG3 / RFU, DIAPH2 / Fold change vs veh, DIAPH2 / RFU, SKA2 / Fold change vs veh, SKA2 / RFU, AFF3 / Fold change vs veh, AFF3 / RFU, LMF1 / Fold change vs veh, LMF1 / RFU, IPO11 / Fold change vs veh, IPO11 / RFU, DFFB / Fold change vs veh, DFFB / RFU, FOXP1 / Fold change vs veh, FOXP1 / RFU, CARD8 / Fold change vs veh, CARD8 / RFU, STRN3 / Fold change vs veh, STRN3 / RFU, ADK / Fold change vs veh, ADK / RFU, RASSF2 / Fold change vs veh, RASSF2 / RFU, WIPF1 / Fold change vs veh, WIPF1 / RFU, LARP1B / Fold change vs veh, LARP1B / RFU, RASA1 / Fold change vs veh, RASA1 / RFU, RB1 / Fold change vs veh, RB1 / RFU, PPFIA1 / Fold change vs veh, PPFIA1 / RFU, MAT2A / Fold change vs veh, MAT2A / RFU, CCT5 / Fold change vs veh, CCT5 / RFU, WDR92 / Fold change vs veh, WDR92 / RFU, CUX1 / Fold change vs veh, CUX1 / RFU, TTC7A / Fold change vs veh, TTC7A / RFU, TMEM135 / Fold change vs veh, TMEM135 / RFU, DEPTOR / Fold change vs veh, DEPTOR / RFU, CPM / Fold change vs veh, CPM / RFU, DNAJB6 / Fold change vs veh, DNAJB6 / RFU, CACNA2D3 / Fold change vs veh, CACNA2D3 / RFU, DTX4 / Fold change vs veh, DTX4 / RFU, TFCP2 / Fold change vs veh, TFCP2 / RFU, GMCL1 /// GMCL1P1 / Fold change vs veh, GMCL1 /// GMCL1P1 / RFU, AEBP2 / Fold change vs veh, AEBP2 / RFU, SNHG1 /// SNORD22 /// SNORD25 /// SNORD26 /// SNORD27 /// SNORD28 /// SNORD29 /// SNORD31 / Fold change vs veh, SNHG1 /// SNORD22 /// SNORD25 /// SNORD26 /// SNORD27 /// SNORD28 /// SNORD29 /// SNORD31 / Fold change (Aza/veh), C12orf56 (ProbeSet 11735607_a_at) / Fold change (ACY-1035/veh), C12orf56 (ProbeSet 11735607_a_at) / Fold change (Aza/veh), FGFR1OP (ProbeSet 11751329_s_at) / Fold change (ACY-1035/veh), FGFR1OP (ProbeSet 11751329_s_at) / Fold change (Aza/veh), VPS36 (ProbeSet 11739960_a_at) / Fold change (ACY-1035/veh), VPS36 (ProbeSet 11739960_a_at) / RFU SYPL1 (11715823_x_at) / Fold change /veh SYPL1 (11715823_x_at) / RFU IGFBP7 (11715501_s_at) / Fold change /veh IGFBP7 (11715501_s_at) / RFU REEP3 (11722064_at) / Fold change /veh REEP3 (11722064_at) / RFU IGLL1 (11728026_x_at) / Fold change /veh IGLL1 (11728026_x_at): dose or concentration left out as unconfirmed
Conditions: MV-4-11 cells, 48 hours

Nc1ncn([C@@H]2O[C@H](CO)[C@@H](O)[C@H]2O)c(=O)n1 [azacitidine]
RFU CLDN22 /// WWC2 (11732394_at): 8.78 RFU
